The structures appear in SMILES notation. Several values for one entry are separate records, joined by “and”; a condition that tells them apart may be missing. Equal values may be shown once. Toxic doses and inconclusive results are not listed.

For this test, the system named is BDF1 mice, P388 leukemia ip, median survival T/C. In words: NCI In Vivo Anticancer Drug Screen. Data for tumor model P388 Leukemia (intraperitoneal) in B6D2F1 (BDF1) mice. The conditions noted are these: endpoint: median survival time, higher = longer survival. Put shortly:
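Compound-treated tumour-bearing mice were compared with vehicle-treated controls. Survival was recorded, and the value is the treated-group measurement divided by the control-group measurement (T/C).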

Setting [1] is: dose: 50.0 mg/kg/injection, schedule: Q04DX003 (ip), vehicle: Klucel (hydroxypropylcellulose) (HPC).
Setting [2] is: dose: 100.0 mg/kg/injection, schedule: Q04DX003 (ip), vehicle: Klucel (hydroxypropylcellulose) (HPC).
Setting [3] is: dose: 200.0 mg/kg/injection, schedule: Q04DX003 (ip), vehicle: Klucel (hydroxypropylcellulose) (HPC).
Setting [4] is: dose: 50.0 mg/kg/injection, schedule: Q01DX009 (ip), vehicle: saline with Tween-80.
The mark [5] stands for this setting: dose: 25.0 mg/kg/injection, schedule: Q01DX009 (ip), vehicle: saline with Tween-80.

Take `S=P(N1CC1)(N1CC1)N1CC1`: the T/C was 114 % of control (dose: 0.19 mg/kg/injection, schedule: Q01DX009 (ip), vehicle: saline); 90 % of control (dose: 0.75 mg/kg/injection, schedule: Q01DX010 (ip), vehicle: saline); 109 % of control (dose: 1.0 mg/kg/injection, schedule: Q01DX001 (oral), vehicle: saline); 121 % of control (dose: 1.5 mg/kg/injection, schedule: Q01DX009 (ip), vehicle: saline); 90 % of control and 109 % of control (dose: 1.5 mg/kg/injection, schedule: Q01DX010 (ip), vehicle: saline); 112 % of control (dose: 3.0 mg/kg/injection, schedule: Q01DX009 (ip), vehicle: saline). The T/C was 91 % of control and 93 % of control and 206 % of control (dose: 6.0 mg/kg/injection, schedule: Q01DX009 (ip), vehicle: saline); 109 % of control and 110 % of control (dose: 6.0 mg/kg/injection, schedule: Q01DX010 (ip), vehicle: saline); 111 % of control (dose: 12.0 mg/kg/injection, schedule: Q01DX009 (ip), vehicle: saline).

For `CC(=O)n1ccnc1/C=C\c1ccc([N+](=O)[O-])s1`, the T/C is 95 % of control under setting [1], 110 % of control under setting [2] and 105 % of control under setting [3].

Take `CCC1SC(=S)N(c2ccc(S(N)(=O)=O)cc2)C1=O` (stereo unspecified): the T/C was 96 % of control (dose: 33.75 mg/kg/injection, schedule: Q01DX009 (ip), vehicle: saline with Tween-80); 97 % of control (dose: 67.5 mg/kg/injection, schedule: Q01DX009 (ip), vehicle: saline with Tween-80); 97 % of control (dose: 135.0 mg/kg/injection, schedule: Q01DX009 (ip), vehicle: saline with Tween-80).

`N=C1SCc2ccc3ccccc3c21`: the T/C reads like this: under setting [4], 104 % of control; (dose: 100.0 mg/kg/injection, schedule: Q01DX009 (ip), vehicle: saline with Tween-80) 106 % of control.

For `Cc1ccc(C)c(CCN)c1`, the T/C under setting [5] is 122 % of control; the T/C (dose: 25.0 mg/kg/injection, schedule: Q04DX003 (ip), vehicle: saline with Tween-80) was 100 % of control; the T/C under setting [4] is 104 % of control; the T/C (dose: 50.0 mg/kg/injection, schedule: Q04DX003 (ip), vehicle: saline with Tween-80) was 100 % of control; the T/C (dose: 100.0 mg/kg/injection, schedule: Q04DX003 (ip), vehicle: saline with Tween-80) is 100 % of control.

In the case of `c1ccc2c(c1)Sc1ccccc1N2CC1CCCN2CCCCC12` (stereo unspecified), the T/C reads like this: (dose: 12.5 mg/kg/injection, schedule: Q01DX001 (ip), vehicle: Klucel (hydroxypropylcellulose) (HPC)) 106 % of control; (dose: 25.0 mg/kg/injection, schedule: Q01DX001 (ip), vehicle: Klucel (hydroxypropylcellulose) (HPC)) 100 % of control; (dose: 50.0 mg/kg/injection, schedule: Q01DX001 (ip), vehicle: Klucel (hydroxypropylcellulose) (HPC)) 93 % of control.

With `Nc1ccc2cn[nH]c2c1`, the T/C was 99 % of control (dose: 25.0 mg/kg/injection, schedule: Q01DX009 (ip), vehicle: water); 103 % of control (dose: 50.0 mg/kg/injection, schedule: Q01DX009 (ip), vehicle: water); 103 % of control (dose: 50.0 mg/kg/injection, schedule: Q04DX003 (ip), vehicle: water); 89 % of control (dose: 100.0 mg/kg/injection, schedule: Q01DX009 (ip), vehicle: water); 116 % of control (dose: 100.0 mg/kg/injection, schedule: Q04DX003 (ip), vehicle: water); 94 % of control (dose: 200.0 mg/kg/injection, schedule: Q01DX009 (ip), vehicle: water). Moreover, the T/C (dose: 200.0 mg/kg/injection, schedule: Q04DX003 (ip), vehicle: water) was 110 % of control; the T/C (dose: 400.0 mg/kg/injection, schedule: Q01DX009 (ip), vehicle: water) is 94 % of control; the T/C (dose: 400.0 mg/kg/injection, schedule: Q04DX003 (ip), vehicle: water) was 116 % of control.

Take `COc1cc2cc3c4ccc(OC)c(OC)c4cc[n+]3c(C)c2cc1OC` (tested in a mixture with another compound): the T/C is, setting by setting: (dose: 20.0 mg/kg/injection, schedule: Q01DX009 (ip), vehicle: saline) 164 % of control; (dose: 40.0 mg/kg/injection, schedule: Q01DX009 (ip), vehicle: saline) 150 % of control and 156 % of control; (dose: 80.0 mg/kg/injection, schedule: Q01DX009 (ip), vehicle: saline) 168 % of control and 172 % of control; (dose: 120.0 mg/kg/injection, schedule: Q01DX009 (ip), vehicle: saline) 172 % of control and 185 % of control.

`O=C(Nc1ncc([N+](=O)[O-])s1)c1cccc([N+](=O)[O-])c1`: the T/C is 99 % of control (dose: 6.25 mg/kg/injection, schedule: Q01DX009 (ip), vehicle: saline with Tween-80); 94 % of control (dose: 12.5 mg/kg/injection, schedule: Q01DX009 (ip), vehicle: saline with Tween-80); 93 % of control under setting [5].

On to `C[C@]12CC[C@H]3[C@@H](CCC4=C[C@@H](OC5OCC(OC6OC(CO)C(O)C(O)C6O)C(O)C5O)CC[C@@]43C=O)[C@@]1(O)CCC2C1=CC(=O)OC1` (stereo partly specified), for which the T/C runs as follows: (dose: 2.5 mg/kg/injection, schedule: Q01DX009 (ip), vehicle: saline) 122 % of control; (dose: 5.0 mg/kg/injection, schedule: Q01DX009 (ip), vehicle: saline) 111 % of control.

With `COCC(N)=O`, the T/C by setting is: (dose: 100.0 mg/kg/injection, schedule: Q01DX009 (ip), vehicle: saline) 106 % of control; (dose: 200.0 mg/kg/injection, schedule: Q01DX009 (ip), vehicle: saline) 97 % of control; (dose: 400.0 mg/kg/injection, schedule: Q01DX009 (ip), vehicle: saline) 113 % of control.

Turning to `CCOC(=O)C1CN(Cc2ccccc2)CCC1=O` (stereo unspecified), the T/C runs as follows: (dose: 50.0 mg/kg/injection, schedule: Q01DX001 (ip), vehicle: saline) 104 % of control; (dose: 100.0 mg/kg/injection, schedule: Q01DX001 (ip), vehicle: saline) 95 % of control; (dose: 200.0 mg/kg/injection, schedule: Q01DX001 (ip), vehicle: saline) 90 % of control.

Turning to `COc1ccc(/C=C(/C)[N+](=O)[O-])cc1OC`, the T/C was 109 % of control (dose: 50.0 mg/kg/injection, schedule: Q01DX001 (ip), vehicle: saline with Tween-80); 113 % of control (dose: 100.0 mg/kg/injection, schedule: Q01DX001 (ip), vehicle: saline with Tween-80); 104 % of control under setting [2]; 118 % of control (dose: 200.0 mg/kg/injection, schedule: Q01DX001 (ip), vehicle: saline with Tween-80); 109 % of control under setting [3].

In the case of `O=C(/C(=C/c1ccccc1)CN1CCOCC1)c1ccccc1`, the T/C by setting is: (dose: 25.0 mg/kg/injection, schedule: Q04DX003 (ip), vehicle: Klucel (hydroxypropylcellulose) (HPC)) 91 % of control; under setting [1], 95 % of control; under setting [2], 91 % of control.

For the compound `CC(=O)c1cccc(N)c1`, the T/C was 104 % of control (dose: 100.0 mg/kg/injection, schedule: Q01DX001 (ip), vehicle: Klucel (hydroxypropylcellulose) (HPC)); 100 % of control (dose: 100.0 mg/kg/injection, schedule: Q01DX009 (ip), vehicle: Klucel (hydroxypropylcellulose) (HPC)); 100 % of control under setting [2]; 100 % of control (dose: 200.0 mg/kg/injection, schedule: Q01DX001 (ip), vehicle: Klucel (hydroxypropylcellulose) (HPC)); 91 % of control (dose: 200.0 mg/kg/injection, schedule: Q01DX009 (ip), vehicle: Klucel (hydroxypropylcellulose) (HPC)); 109 % of control under setting [3]. For the same compound, the T/C reads like this: (dose: 400.0 mg/kg/injection, schedule: Q01DX001 (ip), vehicle: Klucel (hydroxypropylcellulose) (HPC)) 113 % of control; (dose: 400.0 mg/kg/injection, schedule: Q01DX009 (ip), vehicle: Klucel (hydroxypropylcellulose) (HPC)) 95 % of control; (dose: 400.0 mg/kg/injection, schedule: Q04DX003 (ip), vehicle: Klucel (hydroxypropylcellulose) (HPC)) 109 % of control.

With `Cc1ccc(NC(=O)OCCSCCOC(=O)Nc2ccc(C)cc2)cc1`, the T/C runs as follows: (dose: 25.0 mg/kg/injection, schedule: Q04DX003 (ip), vehicle: other) 95 % of control; (dose: 50.0 mg/kg/injection, schedule: Q04DX003 (ip), vehicle: other) 90 % of control; (dose: 100.0 mg/kg/injection, schedule: Q04DX003 (ip), vehicle: other) 90 % of control; (dose: 200.0 mg/kg/injection, schedule: Q04DX003 (ip), vehicle: other) 90 % of control; (dose: 400.0 mg/kg/injection, schedule: Q04DX003 (ip), vehicle: other) 100 % of control.
